The results in this text go back to patent US9775859B2, “Methods and compositions for preventing and treating a disease related to glycan dysregulation” (Sinai Health System, priority 2005, dated 2017).

The subject of test [1] is Jurkat T-cells. The experiment in a line: L-PHA-FITC staining of Jurkat T cells cultured 3 days with monosaccharides, metabolites, Vitamin D3 or glycosidase inhibitors, FACS. The class given is cell-based, human. To be noted: for Mgat5 N-glycans / β1,6GlcNAc-branched N-glycans expression (L-PHA staining): 3 days culture with supplement; for Mgat5-modified N-glycan expression: Jurkat T. The procedure: (§1) Mice used for L-PHA staining and quantitative RT-PCR were sex and age matched. […] 129/Sv mice were from an original Mgat5 gene targeted population (28). All other mice (SJL, NOD, Balb/c and B10.S) were obtained from Jackson Laboratories. […] Mouse and Jurkat cells were stained with L-PHA and LEA by first blocking with PBA (2% bovine serum albumin/0.01% azide/PBS) for 10 min at 4° C. and then incubated with 4 μg/ml of L-PHA-FITC (Vector Laboratories Inc.) or 20 μg/ml of LEA-FITC (Sigma) in PBA for 40 min at 4° C. and analyzed by a BD FACSCalihur (BD Pharmingen, San Diego, Calif.). The level of lectin binding was normalized by untreated control and calculated as a percentage (Sample intensity/control intensity-1) %.
(§2) Mice used for L-PHA staining and quantitative RT-PCR were sex and age matched. […] 129/Sv mice were from the original Mgat5 gene targeted population (28). All other mice (SJL, NOD, Balb/c and B10.S) were obtained from Jackson Laboratories. Mouse cells were stained with anti-CD4 (RM4-5), anti-CD8 (53-6.7), anti-CD45R (RA3-6B2) from eBioscience, and L-PHA (4 μg/ml) and LEA (20 μg/ml) from Sigma. […] Jurkat T-cells were cultured in either glutamine free RPMI 1640, 10% FBS, 10 mM/20 mM glucose or glucose/glutamine free DMEM base media supplemented with 10% FBS, 1.5 mM glucose. The indicated monosaccharides and/or metabolites were added daily except glucose which was added only at time zero.

The subject of test [2] is PL/J and C57/B6 T cell cultures. The experiment in a line: L-PHA staining of mouse CD3+ T cells stimulated with anti-CD3, FACS. Type of test: cell-based. Particulars: for up-regulation of β1,6 GlcNAc branched N-glycans following stimulation: anti-CD3, minimal concentrations; for resting levels of β1,6 GlcNAc branched N-glycans: minimal concentrations. The procedure:
as §1
Mice used for L-PHA staining and quantitative RT-PCR were sex and age matched. […] 129/Sv mice were from the original Mgat5 gene targeted population (28). All other mice (SJL, NOD, Balb/c and B10.S) were obtained from Jackson Laboratories. Mouse cells were stained with anti-CD4 (RM4-5), anti-CD8 (53-6.7), anti-CD45R (RA3-6B2) from eBioscience, and L-PHA (4 μg/ml) and LEA (20 μg/ml) from Sigma. […] The indicated monosaccharides and/or metabolites were added daily except glucose which was added only at time zero. […] The plateau or highest non-toxic dose is shown.

Test [3] deals with Jurkat T-cells. Nature of the test: LEA-FITC staining (poly-N-acetyllactosamine) of Jurkat T cells, FACS. To be noted: 3 days culture with supplement. The class given is cell-based, human. The method, then:
as §1, §2

Test [4] has as its system CHO cells. The experiment in a line: L-PHA and ConA lectin staining of CHO cells by FACS. The class given is cell-based, Chinese Hamster. To be noted: CHO cells treated with inhibitor. The source says:
(§3) For comparison of N-glycan profiles of mice and human MS patients, CHO cells and CHO cells deficient at 5 different steps in the N-glycan pathway (Glucosidase I, Mannosidase I, MGAT1, Mannosidase II and MGAT5, FIG. 7A) were used to define relative L-PHA and Concanavillin A (ConA) lectin staining levels by FACS along with MALDI TOF N-glycan processing profiles. […] Indeed, a human infant with severe human glucosidase I deficiency accumulates Glc3Man (885 A ion in FIG. 16A, 21C) in the urine, a 4 hexose oligomer which derives from the Glucosidase I substrate Glc3Man9GlcNAc2 via endo-mannosidase activity (70). […] Such activity would produce Man8GlcNAc2, Man7GlcNAc2 and Man6GlcNAc2 structures and allow processing by Mannosidase I/II. Indeed, N-glycans of these 3 compositions accumulate in Glucosidase I/II inhibited cells when Mannosidase I activity is blocked with DMN (69). The larger structures Glc3Man9GlcNAc2 (mass 3008) and Glc3Man7GlcNAc2 (mass 2600) were also observed (67), however they were at lower relative intensities compared to the A ion group (FIG. 21C). […] Mixing CHO and Lec1 cells in various proportions confirmed that relative differences in expression of N-glycan structures can be determined using MALDI TOF (FIG. 21G).

Test [5] concerns CHO cells. The experiment in a line: MALDI-TOF mass spectroscopy N-glycan profile of CHO cells. The class given is cell-based, Chinese Hamster. To be noted: CHO cells treated with inhibitor. The procedure: This was done as a service at the Glycotechnology core facility, a resource of the Glycobiology Research and Training Center (GRTC) at the University of California, San Diego. CD3+ murine T cells (6×10^6), resting PBMCs from human controls and MS subjects (6×10^6) and CHO cells (10×10^6) were lysed with 1% SDS in 100 mM Tris pH 7.4, dialyzed to remove SDS, digested with trypsin to generate glycopeptides and treated with PNGaseF to release the N-glycans. To focus on early processing, N-glycans were desialylated by mild acid digestion prior to permethylation and MALDI-TOF mass spectroscopy. Monoisotopic peaks in the spectra were identified using GlycanMass and GlycoMod online software, with specific targeting of the N-glycan intermediates occurring during Golgi processing.
as §3

In test [6] the test system is Jurkat T-cells. The experiment in a line: MS/MS mass spectroscopy of sugar-nucleotide expression in Jurkat cell lysates. Type of test: cell-based, human. The procedure:
Jurkat cell pellets (20×10^6) were resuspended in a cold 300 μl methanol:water (1:1) solution containing maltose as internal standard, vortexed for 10 seconds, and then pipetted into tubes containing 600 μl of chloroform:methanol (C:M) (3:2). Samples were vortexed for 1 minute, and then centrifuged at 14,000 rpm for 5 minutes at 4° C. Supernatants were collected, and an equal volume of C:M (1:1) was added, followed by a second extraction. The pooled aqueous fraction containing the hydrophilic metabolites was dried with a speedvac and stored at −80° C. Prior to injection, the samples were dissolved in 100 μl methanol:water (1:1). […] The metabolites were identified by their transitions in MS/MS, and quantified using the Analyte Software (SCIEX), which measured the area under the curve for the fragment ions corresponding to each parent ion. Quantities for the given substrates are graphed as pmole/min/10^6 cells.
JurkaT-cell pellets (20×10^6) were resuspended in cold 300 μl methanol:water (1:1) solution containing maltose as an internal standard, vortexed for 10 seconds, and then pipetted into tubes containing 600 μl of chloroform:methanol (C:M) (3:2). […] The metabolites were identified by their transitions in MS/MS, and quantified using the Analyte Software (SCIEX), which measured the area under the curve for the fragment ions corresponding to each parent ion. […]

“Also recorded” adds a separate entry of the source.

Regarding `O[C@H]1[C@H](O)[C@@H](O)CN2CC[C@H](O)[C@H]12` [castanospermine, reference compound], the “Mgat5 glycan / β1,6GlcNAc-branched N-glycan expression after glycosidase inhibition (L-PHA)” value in test [1] (Jurkat T cells, 3 days) was “dose dependent reduction; also recorded: reduced”. Also, the “up-regulation of β1,6 GlcNAc branched N-glycans following stimulation” value in test [1] (Jurkat T cells, PMA/ionomycin or anti-CD3, minimal concentrations, listed as CST) was “significantly attenuated”; in test [2] (listed as CST), “significantly attenuated”. Also, the “resting levels of β1,6 GlcNAc branched N-glycans” value in test [1] (Jurkat T cells, minimal concentrations, listed as CST) is on record as “without affecting; also recorded: do not affect”; in test [2] (listed as CST), “without affecting; also recorded: do not affect”.

Consider `N` [ammonia], for which the “Mgat5 N-glycans / β1,6GlcNAc-branched N-glycans expression (L-PHA staining)” value in test [1] (Jurkat T-cells) is reported as “dose dependently increased”. For the same compound, in test [3], the “poly-N-acetyllactosamine expression (LEA staining)” value (“poly-N-acetyllactosamine expression” below) is reported as “dose dependently increased”.

With `NC(=O)CC[C@H](N)C(=O)O` [glutamine], the “Mgat5 N-glycans / β1,6GlcNAc-branched N-glycans expression (L-PHA staining)” value in test [1] (Jurkat T-cells) is on record as “dose dependently increased”. For the same compound, in test [3], the “poly-N-acetyllactosamine expression” value is reported as “dose dependently increased”.

Regarding `CC(=O)CC(=O)O` [acetoacetate], the “Mgat5 N-glycans / β1,6GlcNAc-branched N-glycans expression (L-PHA staining)” value in test [1] (Jurkat T-cells) is reported as “dose dependently increased”. Moreover, in test [3], the “poly-N-acetyllactosamine expression” value is “dose dependently increased”.

Take `OC[C@H]1NC[C@@H](O)[C@@H](O)[C@@H]1O` [deoxymannojirimycin]: in test [2] (listed as DMN), the “up-regulation of β1,6 GlcNAc branched N-glycans following stimulation” value is recorded as “significantly attenuated” and the “resting levels of β1,6 GlcNAc branched N-glycans” value is reported as “without affecting; also recorded: do not affect”. In addition, in test [4], the “high-mannose structures as seen by ConA staining” value is on record as “increased” and the “β1,6GlcNAc-branched N-glycan expression by L-PHA staining” value is recorded as “dramatic reductions”. Besides, in test [5], the “MALDI TOF profile of N-glycans (accumulated structures)” value is reported as “dramatic increases in high mannose structures” and the “β1,6GlcNAc-branched tetra-antennary N-glycans (mass 2969, structure G)” value was “diminished”.

`CC(=O)N[C@H]1C(OC(C)=O)O[C@H](COC(C)=O)[C@@H](OC(C)=O)[C@@H]1OC(C)=O` (stereo partly drawn) [GlcNAc-tetra-acetate]: the “effective concentration to increase Mgat5-modified N-glycan expression, fold less than GlcNAc” value in test [1] (Jurkat T-cells, 3 days) is around 1000 fold.

For the compound `O=c1ccn([C@@H]2O[C@H](CO)[C@@H](O)[C@H]2O)c(=O)[nH]1` [uridine], the “Mgat5 N-glycans / β1,6GlcNAc-branched N-glycans expression (L-PHA staining)” value in test [1] (Jurkat T-cells) is reported as “dose dependently increased”. Also, the “poly-N-acetyllactosamine expression” value in test [3] is “dose dependently increased”. Besides, in test [6], the “intracellular UDP-GlcNAc levels” value was “dramatically raised”.

On to `O=c1cc[nH]c(=O)[nH]1` [uracil], for which the “effective concentration required to raise Mgat5-modified N-glycan expression, fold reduction compared to uridine” value in test [1] (Jurkat T-cells, 3 days) is given as around 100 fold.

Turning to `N[C@H]1C(O)O[C@H](CO)[C@@H](O)[C@@H]1O` (stereo partly drawn) [Glucosamine], the figures for the “Mgat5-modified N-glycan expression” value in test [1] (high concentrations) and in test [1] (low concentrations) were “do the opposite; also recorded: declines” and “increase; also recorded: works”, respectively.
